Key:
[1] = Metabolic stability in mouse liver microsomes assessed as parent compound remaining; type: ADME, Microsome; further: time not given here
[2] = target: T1, Steroid 17-alpha-hydroxylase/17,20 lyase (Homo sapiens, UniProt P05093); assay: Inhibition of human CYP17A1; type: ADME
T1 sequence (P05093 whole entry): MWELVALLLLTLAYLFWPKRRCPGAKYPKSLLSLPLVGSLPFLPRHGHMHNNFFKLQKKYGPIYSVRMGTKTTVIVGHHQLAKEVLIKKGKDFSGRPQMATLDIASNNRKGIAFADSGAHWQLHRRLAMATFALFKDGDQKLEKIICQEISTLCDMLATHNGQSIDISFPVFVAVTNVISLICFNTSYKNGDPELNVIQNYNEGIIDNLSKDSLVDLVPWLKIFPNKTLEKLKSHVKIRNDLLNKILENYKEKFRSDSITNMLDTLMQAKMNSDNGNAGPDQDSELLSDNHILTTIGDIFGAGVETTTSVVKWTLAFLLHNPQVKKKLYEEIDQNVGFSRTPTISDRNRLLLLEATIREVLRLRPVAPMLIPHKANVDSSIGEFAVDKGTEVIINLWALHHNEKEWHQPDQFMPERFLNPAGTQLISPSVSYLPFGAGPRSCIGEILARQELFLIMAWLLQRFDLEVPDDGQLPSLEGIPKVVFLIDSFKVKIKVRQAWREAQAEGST

Cytochrome P450 1A2 = target: T2, Cytochrome P450 1A2 (Homo sapiens, UniProt P05177); assay: Inhibition of CYP1A2 (unknown origin); type: ADME
T2 sequence (P05177 whole entry): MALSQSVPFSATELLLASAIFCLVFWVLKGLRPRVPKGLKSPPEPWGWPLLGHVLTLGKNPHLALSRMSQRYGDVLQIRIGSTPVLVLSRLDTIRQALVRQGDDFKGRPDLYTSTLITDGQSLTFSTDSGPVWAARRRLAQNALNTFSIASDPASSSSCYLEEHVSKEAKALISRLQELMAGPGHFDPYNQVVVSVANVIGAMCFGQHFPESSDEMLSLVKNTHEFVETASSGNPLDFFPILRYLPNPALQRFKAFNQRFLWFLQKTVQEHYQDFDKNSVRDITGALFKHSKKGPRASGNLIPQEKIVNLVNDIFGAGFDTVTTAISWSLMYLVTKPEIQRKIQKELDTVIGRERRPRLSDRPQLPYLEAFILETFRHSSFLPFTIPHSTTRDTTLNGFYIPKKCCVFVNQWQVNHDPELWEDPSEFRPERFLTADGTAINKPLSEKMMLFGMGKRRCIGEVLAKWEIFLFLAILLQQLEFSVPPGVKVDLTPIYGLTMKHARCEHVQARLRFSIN

[3] = Metabolic stability in rat liver microsomes assessed as parent compound remaining; type: ADME, Microsome; further: time not given here
[4] = Metabolic stability in human liver microsomes assessed as parent compound remaining relative to control; type: ADME, Microsome; further: time not given here
[5] = target: T1, Steroid 17-alpha-hydroxylase/17,20 lyase; assay: Selectivity ratio for inhibition of human CYP17A1 hydroxylase activity to inhibition of human CYP17A1 lyase activity; type: ADME

Row | SMILES | Stability [1] | IC50 [2] | IC50 (Cytochrome P450 1A2) | Stability [3] | Stability [4] | Ratio [5]
1 | Fc1ccc(-n2ncc3c(-c4cncnc4N4CC(F)(F)C4)ccnc32)cc1 | 62% | 4 nM | > 40000 nM | 35% | 85% | 3
2 | Nc1ncncc1-c1ccnc2c1cnn2-c1ccc(F)cc1C(F)(F)F | 68% | 14 nM | > 40000 nM | 94% | 100% | 3
3 | Cc1ccncc1-c1ccnc2c1cnn2CC(F)(F)F | 41% |  | 11200 nM | 30% | 92% | 12
4 | Cc1ccncc1-c1ccnc2c1cnn2-c1ncccc1Cl | 25% | 5 nM | 16700 nM | 26% | 88% | 7
5 | Cc1ccncc1-c1ccnc2c1cnn2-c1ccc(F)cc1F | 37% | 9 nM | 5200 nM | 18% | 100% | 19
6 | COc1c(F)cccc1-n1ncc2c(-c3cnccc3C)ccnc21 | 2% | 14 nM | 4740 nM | 0.2% | 77% | 7
7 | Fc1ccc(-n2ncc3c(-c4cncnc4NC4CC4)ccnc32)cc1 | 7% | 46 nM | 10900 nM | 27% | 67% | 6
8 | Cc1ccncc1-c1ccnc2c1cnn2C(C)(C)C | 15% | 92 nM | 5280 nM | 16% |  | 
9 | Nc1ncncc1-c1ccnc2c1cnn2-c1cccc(S(N)(=O)=O)c1 | 95% | 99 nM | > 40000 nM | 89% | 100% | 
10 | COc1ccccc1-n1ncc2c(-c3cnccc3C)ccnc21 | 2% | 9 nM | 15400 nM | 1% | 88% | 
11 | Cc1ccncc1-c1ccnc2c1cnn2Cc1ccc(F)cc1 |  | 800 nM | 5140 nM |  |  | 
12 | Nc1ncncc1-c1ccnc2c1cnn2-c1ccc(F)cc1F | 92% | 11 nM | > 40000 nM | 100% | 98% | 6
13 | Cc1ccncc1-c1ccnc2c1cnn2C |  | > 1000 nM | > 40000 nM |  |  | 
14 | Cc1ccncc1-c1ccnc2c1cnn2-c1ccc(F)cc1Cl | 14% | 4 nM | 8700 nM | 0.9% | 74% | 3
15 | Nc1ncncc1-c1ccnc2c1cnn2-c1c(F)cc(F)cc1F | 82% | 5 nM | > 40000 nM | 87% |  | 3
16 | Nc1ncncc1-c1ccnc2c1cnn2-c1ccccn1 | 70% |  | > 40000 nM | 100% | 100% | 
17 | Nc1ccncc1-c1ccnc2c1cnn2-c1ccc(F)cc1 | 3% | 5 nM | 26900 nM | 0.2% | 99% | 7
18 | Nc1ncncc1-c1ccnc2c1cnn2-c1ncccc1C(F)(F)F | 62% | 11 nM |  | 84% | 98% | 4

Continued by falling IC50 (Cytochrome P450 1A2), values first:

Row | Stability [1] | IC50 [2] | IC50 (Cytochrome P450 1A2) | Stability [3] | Stability [4] | SMILES | Ratio [5]
19 | 3% | 8 nM | 4710 nM | 40% | 42% | Fc1ccc(-n2ncc3c(-c4cncnc4NCC(F)(F)F)ccnc32)cc1 | 3
20 |  |  | 2740 nM |  |  | Cc1ncncc1-c1ccnc2c1cnn2-c1ccc(F)cc1 | 4
21 | 1% | > 1000 nM | 2330 nM | 12% | 72% | Fc1ccc(-n2ncc3c(-c4cncn5cccc45)ccnc32)cc1 | 13
22 | 56% | 141 nM | 2140 nM | 63% | 88% | Fc1ccc(-n2ncc3c(-c4cncnc4C(F)(F)F)ccnc32)cc1 | 
23 | 37% | 3 nM | 1480 nM | 6% | 21% | COc1cccc(-n2ncc3c(-c4cnccc4C)ccnc32)c1 | 
24 | 58% | 11 nM | 717 nM | 32% | 86% | COc1ccncc1-c1ccnc2c1cnn2-c1ccc(F)cc1 | 10
25 | 2% | 24 nM | 662 nM | 37% | 85% | Cc1ccncc1-c1ccnc2c1cnn2-c1ccc(F)c(Cl)c1 | 10
26 | 55% | 23 nM | 658 nM | 78% | 85% | Fc1ccc(-n2ncc3c(-c4cncnc4C4CC4)ccnc32)cc1 | 13
27 | 42% | 91 nM | 617 nM | 48% | 64% | Cc1ccncc1-c1ccnc2c1cnn2-c1nccs1 | 
28 | 7% | 7 nM | 560 nM | 4% | 73% | Cc1ccncc1-c1ccnc2c1cnn2-c1ccccc1 | 
29 | 27% | 6 nM | 384 nM | 43% | 100% | Cc1ccncc1-c1ccnc2c1cnn2-c1ccc(F)cc1 | 43
30 | 5% | 5 nM | 321 nM | 7% | 80% | Cc1ccncc1-c1ccnc2c(-c3ccccc3)noc12 | 
31 | 26% |  | 318 nM | 47% | 100% | Cc1ccncc1-c1ccnn2c(-c3ccccc3)cnc12 | 
32 | 4% | 27 nM | 281 nM | 9% | 76% | Cc1ccncc1-c1ccnc2c1cnn2-c1cccc(F)c1 | 36
33 | 2% | 10 nM | 250 nM | 3% | 65% | Cc1ccncc1-c1ccnc2c(-c3ccccc3)csc12 | 
34 |  | 96 nM | 216 nM |  |  | Fc1ccc(-n2ncc3c(-c4cccnc4)ccnc32)cc1 | 
35 | 7% | 5 nM | 180 nM | 3% | 70% | Cc1ccncc1-c1ccnn2c(-c3ccccc3)ccc12 | 
36 | 2% | 8 nM | 140 nM | 0.8% | 62% | Cc1ccncc1-c1cccc2c1OCCN2c1ccccc1 | 
37 | 3% | 3 nM | 134 nM | 2% | 84% | Cc1ccncc1-c1cccc2c(-c3ccccc3)csc12 | 
38 | 37% |  | 58 nM | 56% | 100% | Cn1cncc1-c1ccnc2c1cnn2-c1ccc(F)cc1 | 30
39 | 6% | 2 nM | 34 nM | 3% | 79% | Cc1ccncc1-c1cccc2c(-c3ccccc3)cnn12 | 
40 | 5% | 1 nM | 28 nM | 6% | 80% | Cc1ccncc1-c1cccc2c(-c3ccccc3)noc12 | 

Source: ChEMBL document CHEMBL5223109, “The discovery of BMS-737 as a potent, CYP17 lyase-selective inhibitor for the treatment of castration-resistant prostate cancer” (Bioorg Med Chem Lett, 2022)
